Reference: patent publication US20240294548A1, “TRICYCLIC SULTAMS AND SULFAMIDES AS ANTITUMOR AGENTS” (PELOTON THERAPEUTICS INC., priority 2021, published 2024)
Where two headings read alike, the source gives them in different places.

Key:
[1] = biological target: T1, DCAF15 RBM39 ternary complex (Homo sapiens, UniProt Q14498+Q66K64, DEL276-383); test: DCAF15 RBM39 complex formation assay (FRET); assay type: biochemical
T1 construct: Amino acids 150 to 331 of RBM39 were cloned into pGEX4T3; GST (from the pGEX4T3 vector, own knowledge) followed by a TEV cleavage site (N); made in house; host or cells: Sf9 baculovirus (DDB1ΔB/DCAF15); E. coli (RBM39 R1R2)
T1 sequence (Q66K64 with tags, fused parts or gaps DEL276-383): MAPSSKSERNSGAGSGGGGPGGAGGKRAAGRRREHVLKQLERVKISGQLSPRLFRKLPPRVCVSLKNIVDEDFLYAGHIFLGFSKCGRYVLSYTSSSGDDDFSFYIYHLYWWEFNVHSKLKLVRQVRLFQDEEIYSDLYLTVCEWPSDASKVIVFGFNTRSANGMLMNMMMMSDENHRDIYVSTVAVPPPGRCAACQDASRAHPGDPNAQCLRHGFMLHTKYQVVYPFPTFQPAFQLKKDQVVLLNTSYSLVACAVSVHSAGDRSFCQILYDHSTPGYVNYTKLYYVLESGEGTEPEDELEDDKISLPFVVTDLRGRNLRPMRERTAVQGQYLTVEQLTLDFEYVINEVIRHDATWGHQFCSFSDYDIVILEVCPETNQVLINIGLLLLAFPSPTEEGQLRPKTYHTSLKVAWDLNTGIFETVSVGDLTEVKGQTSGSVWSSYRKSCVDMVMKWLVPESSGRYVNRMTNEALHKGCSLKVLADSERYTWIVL
T1 sequence (Q14498 150-331, stated change not applied): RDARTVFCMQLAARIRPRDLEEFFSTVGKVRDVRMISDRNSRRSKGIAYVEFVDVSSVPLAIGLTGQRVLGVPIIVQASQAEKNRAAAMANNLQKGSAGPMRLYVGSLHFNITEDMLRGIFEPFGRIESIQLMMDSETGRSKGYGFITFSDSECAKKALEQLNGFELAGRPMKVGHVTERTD
Excerpt: (§1) Proteins used for the assays were as follows: Human DDA1 (UniProt:Q9BW61), DDB1 (UniPro: Q16531), and DCAF15 (UniProt: Q66K64) coding sequences were cloned into pFastBac1 vectors and were co-expressed in Sf9 cells using Bac-to-Bac baculovirus expression system (Thermo Fisher Scientific). The expression construct for DCAF15 includes a N-terminal His6-tag to facilitate the purification.
DCAF15 RBM39 Complex Formation Assay
LANCE Eu-W1024 Anti-6×His and SureLight Allophycocyanin-anti-FLAG antibodies were purchased from Perkin Elmer. Human DDB1DB and His-tagged DCAF15 were co-expressed in baculovirus/sf9 system. […] The His-tagged DCAF15 contains six histidine residues directly preceding the DCAF15 sequence without any linker. An RBM39 fragment containing RRM1 and RRM2 was expressed in E. coli.
A compound of the present disclosure in DMSO (2 μL) was transferred to a 384-well assay plate. Compound was added in 14 points, 3-fold serial dilution (1 μM to 0.6 pico molar) in DMSO. […] FRET assay buffer (25 mM HEPES, pH 7.5, 100 mM NaCl, […], 0.5 mM TCEP, 0.005% Tween-20, 0.2 nM Eu-W1024 Anti-6×His, 50 nM SureLight Allophycocyanin-anti-FLAG, 20 nM DDB1DB/DCAF15, 50 nM RBM39 R1R2) was added and the resulting solution was incubated overnight at 4° C. […] Low signal controls containing no compound and high signal controls containing 10 mM indisulam were measured for each plate.
EC50 values were calculated using Dotmatics template equation for 4-parameter fit.
Results are expressed as % formation using the following equation: […]

[2] = biological target: T2, DCAF15 (DDA1-DDB1ΔB-DCAF15Δpro) (Homo sapiens, UniProt Q66K64, DEL276-383); test: DCAF15 displacement assay (displacement FRET, probe PT7795); assay type: binding
T2 construct: made in house; host or cells: Sf9 (Bac-to-Bac baculovirus)
Excerpt: as §1
DCAF15 Displacement Assay (Displacement FRET KD)
Synthesis of the probe PT7795 is described in the article.
Binding of PT7795 to DDA1-DDB1AB-DCAF15Δpro was measured by the FRET signal between europium-labeled anti-His antibody (AD0205, Perkin Elmer) that is associated with His-tagged DCAF15 and ALX647 moiety in PT7795. […] After equilibrating for 2-3 hours at 4° C., the plate was removed from the incubator, briefly spun, then read on a Spark 10 (Tecan) at the excitation/emission wavelength of 340 nm/615 nm and 340 nm/665 nm.
Binding of compounds in this disclosure to DCAF15 was measured in a competition by the displacement of PT7795. The concentration of PT7795 was kept at 300 nM while the concentration of a compound was varied from 0.01 to 100 μM. The incubation time was increased to 18 hours for enhanced signal to noise level.
F=Fmin+(Fmax−Fmin)/(1+10^(logIC50−log[Compound])^n) (Equation 2)
The Kds can then be calculated from IC50s using Equation 3 (Cheng-Prusoff equation).

[3] = tested on: HCT116 human colorectal carcinoma cells; test: CellTiter-Glo assay (cell viability); assay type: cell-based; conditions: HCT-116, 72 h, read-out: CTG IC50
Protocol: HCT116 human colorectal carcinoma cells were used in these experiments. HCT116 cells were obtained from ATCC. CellTiter-Glo® Luminescent Cell Viability Assay Reagent was obtained from Promega.
About 3,000 cells were seeded into 96-well plate with 100 μL of media (DMEM supplemented with 10% FBS, 100 units penicillin, and […] streptomycin per mL) the day before the experiment. For compound treatment, the master plate was prepared as follows: 100× compound stocks were prepared in a 96-well plate by 1 to 3 serial dilutions of 0.5 mM DMSO stocks. Each master plate contained serial dilution of 8 compounds, including the control compound E7820. […] of 100× compound stock was added to each well of the assay plate to give final concentrations of […]. Each concentration was tested in triplicate. After 3 days, cell viability was determined using CellTiter-Glo Luminescent Cell Viability Assay Reagent following the manufacturer's recommended protocol. Briefly, […] of CellTiter-Glo reagent was added to each well of the assay plate and the contents were mixed for 3 minutes at 600 rpm on a shaker (Thermomixer R). The plate was immediately placed in a plate reader (Synergy 2) and the luminescence signal (0.5 second per well integration time) was determined. IC50 values were calculated using Dotmatics software.

[4] = FRET ratio, 20 nM DDB1DB/DCAF15, 50 nM RBM39 R1R2, overnight at 4° C., read-out: DCAF15 RBM39 ternary complex EC50
[5] = displacement of PT7795 (300 nM), compound 0.01 to 100 μM, 18 hours incubation, read-out: DCAF15 displacement IC50
[6] = HCT116 cells, 3 days, CellTiter-Glo luminescence

CC(=O)NCCN1Cc2cc(Cl)c3c(Cl)c[nH]c3c2NS1(=O)=O [Compound 40, N-(2-(6,7-dichloro-2,2-dioxido-4,9-dihydro-[1,2,6]thiadiazino[4,3-g]indol-3(1H)-yl)ethyl) acetamide]
EC50 [1, 4]: 1.6 nM
IC50 [2, 5]: 1560 nM
IC50 [3, 6]: 537 nM

O=S1(=O)Nc2c(cc(Cl)c3c(Cl)c[nH]c23)CN1c1ccccc1 [Compound 7, 6,7-dichloro-3-phenyl-1,3,4,9-tetrahydro-[1,2,6] thiadiazino[4,3-g]indole 2,2-dioxide]
EC50 [1, 4]: 8.8 nM
IC50 [2, 5]: 17400 nM
IC50 [3, 6]: 1310 nM

O=S1(=O)Nc2c(cc(Cl)c3c(Cl)c[nH]c23)CN1CCCC(F)(F)C(F)(F)F [Compound 25, 6,7-dichloro-3-(4,4,5,5,5-pentafluoropentyl)-1,3,4,9-tetrahydro-[1,2,6] thiadiazino[4,3-g]indole 2,2-dioxide]
EC50 [1, 4]: 3.4 nM
IC50 [2, 5]: 52200 nM
IC50 [3, 6]: 992 nM

O=S1(=O)Nc2c(cc(Cl)c3c(Cl)c[nH]c23)CN1Cc1ccncc1 [Compound 20, 6,7-dichloro-3-(pyridin-4-ylmethyl)-1,3,4,9-tetrahydro-[1,2,6] thiadiazino[4,3-g] indole 2,2-dioxide]
EC50 [1, 4]: 0.7 nM
IC50 [2, 5]: 1070 nM
IC50 [3, 6]: 155 nM

Cn1cc(CN2Cc3cc(Cl)c4c(Cl)c[nH]c4c3NS2(=O)=O)ccc1=O [Compound 65, 5-((6,7-dichloro-2,2-dioxido-4,9-dihydro-[1,2,6]thiadiazino[4,3-g]indol-3(1H)-yl)methyl)-1-methylpyridin-2(1H)-one]
EC50 [1, 4]: 1.9 nM
IC50 [2, 5]: 934 nM
IC50 [3, 6]: 493 nM

O=S1(=O)Nc2c(ccc3c(Cl)c[nH]c23)CN1C1CCCCC1 [Compound 4, 7-chloro-3-cyclohexyl-1,3,4,9-tetrahydro-[1,2,6] thiadiazino[4,3-g]indole 2,2-dioxide]
EC50 [1, 4]: 16.1 nM
IC50 [2, 5]: 58100 nM
IC50 [3, 6]: 943 nM

O=S1(=O)Nc2c(cc(Cl)c3c(Cl)c[nH]c23)CC1Cc1ccccc1 (stereo not drawn) [Compound 16, 3-benzyl-6,7-dichloro-1,3,4,9-tetrahydro-[1,2] thiazino[4,3-g]indole 2,2-dioxide]
EC50 [1, 4]: 1 nM
IC50 [2, 5]: 1210 nM
IC50 [3, 6]: 259 nM

O=S1(=O)Nc2c(cc(Cl)c3c(Cl)c[nH]c23)CN1CCN1CCOCC1 [Compound 71, 6,7-dichloro-3-(2-morpholinoethyl)-1,3,4,9-tetrahydro-[1,2,6] thiadiazino[4,3-g]indole 2,2-dioxide]
EC50 [1]: 2.1 nM
IC50 [2]: 952 nM
IC50 [3]: 353 nM

CCCC1Cc2ccc3c(Cl)c[nH]c3c2NS1(=O)=O (stereo not drawn) [Compound 10, 7-chloro-3-propyl-1,3,4,9-tetrahydro-[1,2]thiazino[4,3-g]indole 2,2-dioxide]
EC50 [1, 4]: 16.4 nM
IC50 [2, 5]: ≥ 100000 nM
IC50 [3, 6]: 5000 nM

O=S1(=O)Nc2c(cc(Cl)c3c(Cl)c[nH]c23)CN1Cc1ccncc1Cl [Compound 35, 6,7-dichloro-3-((3-chloropyridin-4-yl)methyl)-1,3,4,9-tetrahydro-[1,2,6]thiadiazino [4,3-g]indole 2,2-dioxide]
EC50 [1, 4]: 4 nM
IC50 [2, 5]: 210 nM
IC50 [3, 6]: 118 nM

Cc1ccc(CN2Cc3cc(Cl)c4c(Cl)c[nH]c4c3NS2(=O)=O)cn1 [Compound 48, 6,7-dichloro-3-((6-methylpyridin-3-yl)methyl)-1,3,4,9-tetrahydro-[1,2,6] thiadiazino[4,3-g]indole 2,2-dioxide]
EC50 [1, 4]: 0.6 nM
IC50 [2, 5]: 623 nM
IC50 [3, 6]: 259 nM

CC(c1ccccc1)N1Cc2cc(Cl)c3c(Cl)c[nH]c3c2NS1(=O)=O (stereo not drawn) [Compound 23, 6,7-dichloro-3-(1-phenylethyl)-1,3,4,9-tetrahydro-[1,2,6] thiadiazino[4,3-g] indole 2,2-dioxide]
EC50 [1, 4]: 2.8 nM
IC50 [2, 5]: 9590 nM
IC50 [3, 6]: 591 nM

Nc1ccccc1CN1Cc2cc(Cl)c3c(Cl)c[nH]c3c2NS1(=O)=O [Compound 74, 3-(2-aminobenzyl)-6,7-dichloro-1,3,4,9-tetrahydro-[1,2,6] thiadiazino[4,3-g]indole 2,2-dioxide]
EC50 [1, 4]: 1.3 nM
IC50 [2, 5]: 301 nM
IC50 [3, 6]: 171 nM

O=S1(=O)Nc2c(cc(Cl)c3c(Cl)c[nH]c23)CN1Cc1ccccc1Cl [Compound 14, 6,7-dichloro-3-(2-chlorobenzyl)-1,3,4,9-tetrahydro-[1,2,6] thiadiazino[4,3-g] indole 2,2-dioxide]
EC50 [1, 4]: 3.4 nM
IC50 [2, 5]: 2320 nM
IC50 [3, 6]: 218 nM

CN1Cc2cc(Cl)c3c(Cl)c[nH]c3c2NS1(=O)=O [Compound 15, 6,7-dichloro-3-methyl-1,3,4,9-tetrahydro-[1,2,6]thiadiazino [4,3-g]indole 2,2-dioxide]
EC50 [1, 4]: 7.7 nM
IC50 [2, 5]: 14400 nM
IC50 [3, 6]: 726 nM

O=S1(=O)Nc2c(cc(Cl)c3c(Cl)c[nH]c23)CN1CC1CCOC1 (stereo not drawn) [Compound 86, 6,7-dichloro-3-((tetrahydrofuran-3-yl)methyl)-1,3,4,9-tetrahydro-[1,2,6] thiadiazino[4,3-g]indole 2,2-dioxide]
EC50 [1, 4]: 1.3 nM
IC50 [2, 5]: 410 nM
IC50 [3, 6]: 121 nM

O=S1(=O)Nc2c(cc(Cl)c3c(Cl)c[nH]c23)CN1CCCC(F)(F)F [Compound 32, 6,7-dichloro-3-(4,4,4-trifluorobutyl)-1,3,4,9-tetrahydro-[1,2,6] thiadiazino[4,3-g]indole 2,2-dioxide]
EC50 [1, 4]: 1.9 nM
IC50 [2, 5]: 4120 nM
IC50 [3, 6]: 269 nM

O=c1cccc(CN2Cc3cc(Cl)c4c(Cl)c[nH]c4c3NS2(=O)=O)[nH]1 [Compound 57, 6-((6,7-dichloro-2,2-dioxido-4,9-dihydro-[1,2,6]thiadiazino[4,3-g]indol-3(1H)-yl)methyl)pyridin-2(1H)-one]
EC50 [1, 4]: 4 nM
IC50 [2, 5]: 1000 nM
IC50 [3, 6]: 525 nM

Nc1cccc(CN2Cc3cc(Cl)c4c(Cl)c[nH]c4c3NS2(=O)=O)c1 [Compound 76, 3-(3-aminobenzyl)-6,7-dichloro-1,3,4,9-tetrahydro-[1,2,6] thiadiazino[4,3-g]indole 2,2-dioxide]
EC50 [1, 4]: 1.2 nM
IC50 [2, 5]: 569 nM
IC50 [3, 6]: 254 nM

O=S1(=O)Nc2c(cc(Cl)c3c(Cl)c[nH]c23)CN1CCCCF [Compound 18, 6,7-dichloro-3-(4-fluorobutyl)-1,3,4,9-tetrahydro-[1,2,6]thiadiazino[4,3-g]indole 2,2-dioxide]
EC50 [1, 4]: 0.9 nM
IC50 [2, 5]: 2680 nM
IC50 [3, 6]: 418 nM

O=S1(=O)Nc2c(cc(Cl)c3c(Cl)c[nH]c23)CN1Cc1ccccn1 [Compound 19, 6,7-dichloro-3-(pyridin-2-ylmethyl)-1,3,4,9-tetrahydro-[1,2,6]thiadiazino [4,3-g]indole 2,2-dioxide]
EC50 [1, 4]: 1.6 nM
IC50 [2, 5]: 531 nM
IC50 [3, 6]: 237 nM
